In US20130317029A1 (PORTOLA PHARMACEUTICALS, INC., priority 2010, published 2013) one finds IC50 data, which are given here for 28 molecules.

For this assay, the target named is T1, full length active recombinant SYK enzyme (Homo sapiens, UniProt P43405).
T1 construct: full length active recombinant SYK enzyme (Millipore, Calif.); purchased Millipore
In words: Inhibition of Syk tyrosine phosphorylation activity (LANCE TR-FRET kinase assay). It counts as biochemical. From the text:
This example illustrates methods for evaluating the compounds of the invention, along with results obtained for such assays. The in vitro and in vivo human Syk activities of the inventive compounds can be determined by various procedures known in the art, such as a test for their ability to inhibit the activity of human plasma Syk. […] The IC50 value is the concentration (in nM) of the compound required to provide 50% inhibition of human Syk proteolytic activity.
Potency of candidate molecules for inhibiting Syk tyrosine phosphorylation activity is assessed by measuring the ability of a test compound to inhibit Syk-mediated tyrosine phosphorylation of a Syk-specific substrate.
SYK tyrosine phosphorylation activity is measured using the LANCE™ Technology developed by Perkin Elmer Life and Analytical Sciences (Boston, Mass.). LANCE™ refers to homogeneous time resolved fluorometry applications using techniques such as time-resolved fluorescence resonance energy transfer assay (TR-FRET) (see generally for procedures in Perkin Elmer Application Note—How to Optimize a Tyrosine Kinase Assay Using Time Resolved Fluorescence-Based LANCE Detection, wwww.perkinelmer.com/lifesciences). The assay principle involves detection of a phosphorylated substrate using energy transfer from a phosphospecific europium-labeled antibody to streptavidin-allophycocyanin as an acceptor.
To test the ability of candidate molecules to inhibit SYK tyrosine phosphorylation activity, molecules are reconstituted in 30% DMSO and serially diluted 1:3 with the final dilution containing DMSO in the absence of the candidate molecule. The final DMSO concentration in the assay is 3%. Kinase assays are performed as a two part reaction. The first reaction is a kinase reaction and which comprises of a candidate molecule, full length active recombinant SYK enzyme (Millipore, Calif.) and biotin-labeled SYK-specific substrate biotin-[…]-OH. The second reaction involves termination of the kinase reaction and the simultaneous addition of the detection reagents-europium-labeled anti-phosphotyrosine reagent (Eu-W1024-PY100, Perkin Elmer, Boston, Mass.) and Streptavidin-Allophycocyanin detection reagent (SA-APC, Prozyme, Calif.). The kinase reaction is performed in a black U-bottom 96-well microtitre plate. The final reaction volume is 50 μL and contains a final concentration of 1 nM active SYK enzyme, 550 nM SYK-substrate, and 100 μM ATP diluted in a buffer containing 50 mM Tris pH 7.5, 5 mM MgCl2, and 1 mM DTT. The reaction is allowed to proceed for 1 hour at room temperature. The quench buffer contains 100 mM Tris pH 7.5, 300 mM NaCl2, 20 mM EDTA, 0.02% Brij35, and 0.5% BSA. The detection reagents are added to the reaction mixture at the following dilutions-1:500 for Eu-W1024-PY100 and 1:250 for SA-APC. The kinase reaction is terminated by the addition of 50 μL quench buffer containing the detection reagents. The detection is allowed to proceed for 1 hr at room temperature. Detection of the phosphorlated substrate in the absence and presence of inhibitors is measured in the TR-FRET instrument, Analyst HT (Molecular Probes, Sunnyvale, Calif.) and the condition for measurements are set up using CriterionHost Release 2.0 (Molecular Probes, Sunnyvale, Calif.). The settings used are a follows: excitation 360 nm, emission 665-7.5 nm, beam splitter 350 nm 50/50, flash 100 pulses, delay 60 us, integration 400 us, z-height 2 mm. Inhibition of SYK-tyrosine kinase activity is calculated as the maximum response observed in the presence of inhibitor, compared to that in the absence of inhibitor. IC50s were derived by non-linear regression analysis.
A general note: TR-FRET usually uses a lanthanide donor and a delayed reading to cut background.
By IC50 is commonly meant the concentration that gives 50% inhibition. On to `CC[C@@H](Nc1nc(Nc2cccc(-c3ncccc3F)c2)c(C(N)=O)c(=O)[nH]1)C(N)=O` [Example 81, (R)-2-(1-amino-1-oxobutan-2-ylamino)-6-oxo-4-(3-(3-fluoropyridin-2-yl)phenylamino)-1,6-dihydropyrimidine-5-carboxamide], for which the IC50 lay within 1 to 10 nM.

`CC(=O)N(C)c1ccc(Nc2nc(NC3CC3)[nH]c(=O)c2C(N)=O)cc1` [Example 43, 2-(cyclopropylamino)-4-(4-(N-methylacetamido)phenylamino)-6-oxo-1,6-dihydropyrimidine-5-carboxamide]: the IC50 is > 1000 nM.

As to `CC[C@@H](Nc1nc(Nc2cccc(OC(F)(F)F)c2)c(C(N)=O)c(=O)[nH]1)C(N)=O` [Example 102, (R)-2-(1-amino-1-oxobutan-2-ylamino)-4-(3-(trifluoromethoxy)phenylamino)-6-oxo-1,6-dihydropyrimidine-5-carboxamide], the IC50 fell in the range of 1 to 10 nM.

For the molecule `CC(C)C[C@@H](Nc1nc(Nc2ccc3ncccc3c2)c(C(N)=O)c(=O)[nH]1)C(N)=O` [Example 13, (R)-2-(1-amino-4-methyl-1-oxopentan-2-ylamino)-6-oxo-4-(quinolin-6-ylamino)-1,6-dihydropyrimidine-5-carboxamide], the IC50 is < 1 nM.

Take `Cc1cc(C)cc(Nc2nc(N[C@@H](CN)C(C)C)[nH]c(=O)c2C(N)=O)c1` [Example 12, (R)-2-(1-amino-3-methylbutan-2-ylamino)-4-(3,5-dimethylphenylamino)-6-oxo-1,6-dihydropyrimidine-5-carboxamide]: the IC50 lay in the range of 1 to 10 nM.

As for `COc1nc(Nc2ccc(N3CCN(C(C)=O)CC3)cc2)nc(Nc2cccc(C)c2)c1C(N)=O` [Example 74, 4-(m-toluidino)-2-(4-(4-acetylpiperazin-1-yl)phenylamino)-6-methoxypyrimidine-5-carboxamide], the IC50 was > 1000 nM.

`Cc1cccc(Nc2nc(N[C@H](CC(C)C)C(N)=O)[nH]c(=O)c2C(N)=O)c1` [Example 9, (R)-2-(1-amino-4-methyl-1-oxopentan-2-ylamino)-6-oxo-4-(m-tolylamino)-1,6-dihydropyrimidine-5-carboxamide]: the IC50 lay in the range of 1 to 10 nM.

For the molecule `CC(C)[C@@H](Nc1nc(Nc2ccc(-n3cccn3)cc2)c(C(N)=O)c(=O)[nH]1)C(N)=O` [Example 19], the 50% inhibitory concentration (IC50) was in the range of 1 to 10 nM.

Turning to `C[C@H](N)CNc1nc(Nc2ccc3ncccc3c2)c(C(N)=O)c(=O)[nH]1` [Example 51, (S)-2-(2-aminopropylamino)-6-oxo-4-(quinolin-6-ylamino)-1,6-dihydropyrimidine-5-carboxamide], the IC50 was in the range of 1 to 10 nM.

In the case of `CC(=O)N1CCN(c2ccc(Nc3nc(Nc4cc(C)cc(C)c4)c(C(N)=O)c(=O)[nH]3)cc2)CC1` [Example 59, 2-(4-(4-acetylpiperazin-1-yl)phenylamino)-4-(3,5-dimethylphenylamino)-6-oxo-1,6-dihydropyrimidine-5-carboxamide], the IC50 is > 1000 nM.

Take `Cc1cc(C)cc(Nc2nc(NCC(N)=O)[nH]c(=O)c2C(N)=O)c1` [Example 49, 2-(2-amino-2-oxoethylamino)-4-(3,5-dimethylphenylamino)-6-oxo-1,6-dihydropyrimidine-5-carboxamide]: the IC50 was 10 to 100 nM.

Take `CC(C)[C@H](CN)Nc1nc(Nc2cccc(-n3nccn3)c2)c(C(N)=O)c(=O)[nH]1` [Example 22, (R)-4-(3-(2H-1,2,3-triazol-2-yl)phenylamino)-2-(1-amino-3-methylbutan-2-ylamino)-6-oxo-1,6-dihydropyrimidine-5-carboxamide]: the IC50 lay in the range of 1 to 10 nM.

Turning to `CC(C)[C@@H](Nc1nc(Nc2ccc3ncccc3c2)c(C(N)=O)c(=O)[nH]1)C(N)=O` [Example 20, (R)-2-(1-amino-3-methyl-1-oxobutan-2-ylamino)-6-oxo-4-(quinolin-6-ylamino)-1,6-dihydropyrimidine-5-carboxamide], the IC50 is 1 to 10 nM.

On to `CC(C)C[C@@H](Nc1nc(Nc2ccc3ncsc3c2)c(C(N)=O)c(=O)[nH]1)C(N)=O` [Example 29], for which the IC50 was < 1 nM.

As for `CC(C)C[C@@H](Nc1nc(Nc2cccc(-n3ccnc3)c2)c(C(N)=O)c(=O)[nH]1)C(N)=O` [Example 118, (R)-2-(1-amino-4-methyl-1-oxopentan-2-ylamino)-4-(3-(1H-imidazol-1-yl)phenylamino)-6-oxo-1,6-dihydropyrimidine-5-carboxamide], the half-maximal inhibitory concentration (IC50) was in the range of 1 to 10 nM.

In the case of `CC(C)C[C@@H](Nc1nc(Nc2cccc(-n3nccn3)c2)c(C(N)=O)c(=O)[nH]1)C(N)=O` [Example 7, (R)-4-(3-(2H-1,2,3-triazol-2-yl)phenylamino)-2-(1-amino-4-methyl-1-oxopentan-2-ylamino)-6-oxo-1,6-dihydropyrimidine-5-carboxamide], the IC50 lay within 10 to 100 nM.

`CC(C)[C@@H](Nc1nc(Nc2cccc(-c3ncccn3)c2)c(C(N)=O)c(=O)[nH]1)C(N)=O` [Example 28, (R)-2-(1-amino-3-methyl-1-oxobutan-2-ylamino)-6-oxo-4-(3-(pyrimidin-2-yl)phenylamino)-1,6-dihydropyrimidine-5-carboxamide]: the IC50 lay within 10 to 100 nM.

As for `CC(C)[C@@H](Nc1nc(Nc2cccc(-n3cccn3)c2)c(C(N)=O)c(=O)[nH]1)C(N)=O` [Example 33], the IC50 fell in the range of 1 to 10 nM.

`CC[C@@H](Nc1nc(Nc2ccc3ncccc3c2)c(C(N)=O)c(=O)[nH]1)C(N)=O` [Example 21, (R)-2-(1-amino-1-oxobutan-2-ylamino)-6-oxo-4-(quinolin-6-ylamino)-1,6-dihydropyrimidine-5-carboxamide]: the IC50 was < 1 nM.

On to `CC(C)C[C@@H](Nc1nc(Nc2ccc(-n3ccnc3)cc2)c(C(N)=O)c(=O)[nH]1)C(N)=O` [Example 115, (R)-2-(1-amino-4-methyl-1-oxopentan-2-ylamino)-4-(4-(1H-imidazol-1-yl)phenylamino)-6-oxo-1,6-dihydropyrimidine-5-carboxamide], for which the IC50 fell in the range of 1 to 10 nM.

As for `CC(C)C[C@@H](Nc1nc(Nc2cccc(-n3cccn3)c2)c(C(N)=O)c(=O)[nH]1)C(N)=O` [Example 32], the IC50 is 1 to 10 nM.

In the case of `CC[C@@H](Nc1nc(Nc2cccc(OCCOC)c2)c(C(N)=O)c(=O)[nH]1)C(N)=O` [Example 99, (R)-2-(1-amino-1-oxobutan-2-ylamino)-4-(3-(2-methoxyethoxy)phenylamino)-6-oxo-1,6-dihydropyrimidine-5-carboxamide], the IC50 fell in the range of 1 to 10 nM.

For the molecule `CNC(=O)[C@@H](CC(C)C)Nc1nc(Nc2cccc(-c3ccccn3)c2)c(C(N)=O)c(=O)[nH]1` [Example 100, (R)-2-(4-methyl-1-(methylamino)-1-oxopentan-2-ylamino)-6-oxo-4-(3-(pyridin-2-yl)phenylamino)-1,6-dihydropyrimidine-5-carboxamide], the IC50 is > 1000 nM.

On to `CNCCNc1nc(Nc2cccc(C)c2)c(C(N)=O)c(=O)[nH]1` [Example 14], for which the IC50 fell in the range of 10 to 100 nM.

Turning to `Cc1cc(C)cc(Nc2nc(NC3CCCCC3N)[nH]c(=O)c2C(N)=O)c1` (stereo not shown) [Example 57, 2-(2-aminocyclohexylamino)-4-(3,5-dimethylphenylamino)-6-oxo-1,6-dihydropyrimidine-5-carboxamide], the IC50 fell in the range of 100 to 1000 nM.

Take `CC[C@@H](Nc1nc(Nc2ccc(-n3cccn3)cc2)c(C(N)=O)c(=O)[nH]1)C(N)=O` [Example 24]: the IC50 was in the range of 1 to 10 nM.

For `CC(=O)N1CCN(c2ccc(Nc3nc(NC4CC4)c(C(N)=O)c(=O)[nH]3)cc2)CC1` [Example 62, 2-(4-(4-acetylpiperazin-1-yl)phenylamino)-4-(cyclopropylamino)-6-oxo-1,6-dihydropyrimidine-5-carboxamide], the IC50 was > 1000 nM.

In the case of `CC(C)C[C@@H](Nc1nc(Nc2ccc(-c3cccnc3)cc2)c(C(N)=O)c(=O)[nH]1)C(N)=O` [Example 106, (R)-2-(1-amino-4-methyl-1-oxopentan-2-ylamino)-6-oxo-4-(4-(pyridin-3-yl)phenylamino)-1,6-dihydropyrimidine-5-carboxamide], the IC50 fell in the range of 1 to 10 nM.
